Laboratory results taken from patent US20060183119A1, “Method for determining predisposition to a physiological reaction in a patient” (UNIVERSITE LAVAL, priority 2002, published 2006).
Changes are numbered by the printed parent chain.

Key:
UGT1A7*6 = target: T1, UGT1A7*6 (Homo sapiens, UniProt Q9HAW7, E139D); assay: SN-38 glucuronidation by microsomes of HEK293 cells expressing UGT1A7*6; assay type: in vitro ADME; set-up: key to Function (SN-38G formation versus *1 allele): High: no significant difference in activity compared to *1 allele.; Low: significantly lower SN-38G formation versus *1 allele
T1 construct: expressed in transfected cells
T1 sequence (Q9HAW7 26-530 E139D): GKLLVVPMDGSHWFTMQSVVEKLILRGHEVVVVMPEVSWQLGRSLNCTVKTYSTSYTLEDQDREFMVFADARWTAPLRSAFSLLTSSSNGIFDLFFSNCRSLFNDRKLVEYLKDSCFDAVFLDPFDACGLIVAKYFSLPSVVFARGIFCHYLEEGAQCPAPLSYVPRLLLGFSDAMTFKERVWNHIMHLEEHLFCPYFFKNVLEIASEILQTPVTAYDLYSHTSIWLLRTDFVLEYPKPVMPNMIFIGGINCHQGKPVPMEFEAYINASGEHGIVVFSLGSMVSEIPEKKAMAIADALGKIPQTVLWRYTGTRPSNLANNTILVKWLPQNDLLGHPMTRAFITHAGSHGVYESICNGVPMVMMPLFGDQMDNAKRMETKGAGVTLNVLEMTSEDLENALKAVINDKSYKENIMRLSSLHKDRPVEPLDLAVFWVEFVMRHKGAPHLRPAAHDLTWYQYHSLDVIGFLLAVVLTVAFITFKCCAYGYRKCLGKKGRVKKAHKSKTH
Description: (§1) Western blot analyses of UGT1A7 and UGT1A9 variants expressed in HEK293 cells were performed on microsomal proteins (10 μg) separated on a 10% SDS-polyacrylamide gel. After transferring the proteins, the membranes were probed with an anti-UGT1A RC-71 polyclonal antibody and with an anti-calnexin antibody. The relative levels of UGT1A9 (a) and UGT1A7 proteins (b) were determined by semi-quantitative densitometric analysis of the Enhanced chemiluminescence (ECL) image. The in vitro SN-38 activity was assessed using microsomal fractions prepared from HEK293 cells expressing the *1 and variant UGT1A9 (c) and UGT1A7 (d) alleles and incubated with 5 μM of SN-38 as described in Materials and Methods.
(§2) For the determination of Vmax and Km.

UGT1A7*8 = target: T2, UGT1A7*8 (Homo sapiens, UniProt Q9HAW7, E139D/N129K/R131K/W208R); assay: SN-38 glucuronidation by microsomes of HEK293 cells expressing UGT1A7*8; assay type: in vitro ADME; set-up: key to Function (SN-38G formation versus *1 allele): High: no significant difference in activity compared to *1 allele.; Low: significantly lower SN-38G formation versus *1 allele
T2 construct: expressed in transfected cells
T2 sequence (Q9HAW7 26-530 N129K/R131K/E139D/W208R): T1 sequence (Q9HAW7 26-530 E139D) with N104K, R106K, W183R
Description: as §1, §2

CCc1c2c(nc3ccc(O)cc13)-c1cc3c(c(=O)n1C2)COC(=O)[C@]3(O)CC [SN-38, 7-ethyl-10-hydroxycamptothecin]
SN-38 glucuronidating activity of the allele (in words) (UGT1A7*6): highest
Function (SN-38G formation versus *1 allele) (UGT1A7*6; in vitro experiments): High
SN-38 glucuronidating activity of the allele (in words) (UGT1A7*8): low
Function (SN-38G formation versus *1 allele) (UGT1A7*8; in vitro experiments): Low
lower rates of SN-38G formation compared to UGT1A7*1 (UGT1A7*8; range given for *5, *7 and *8 together): 38-76%
